A word on the mass density: it is the mass of a sample divided by its volume.

For data set [1] the following is noted: 298.15 K; 101.33 kPa; Liquid; Pycnometric method.
The nature of data set [2]: excess molar enthalpy (molar enthalpy of mixing); xn = mol fraction of the nth substance listed. Particulars: 298.15 K, 101 kPa, Liquid, Flow calorimetry.

Numbers after ± are expanded uncertainties.

Turning to `CCCCO` [butan-1-ol], the mass density in data set [1] is on record as 805.71 ± 0.73 kg/m3.
On the same count and under the same terms, next, `CCCCCCCCCCO` [decan-1-ol]: 826.31 ± 0.74 kg/m3; `CCCCCCO` [hexan-1-ol]: 815.4 ± 0.78 kg/m3; `C=CCCCCCC` [oct-1-ene]: 710.88 ± 0.64 kg/m3.
For `C=CCCCCCC` [oct-1-ene] + CCCCCCCCCCO, the excess molar enthalpy in data set [2] (x2 = 0.097) was 0.0643 ± 0.00335 kcal/mol; in data set [2] (x2 = 0.195) it was 0.0875 ± 0.00454 kcal/mol; in data set [2] (x2 = 0.293) it was 0.0956 ± 0.00478 kcal/mol; in data set [2] (x2 = 0.406), 0.0924 ± 0.00478 kcal/mol; in data set [2] (x2 = 0.504), 0.0834 ± 0.0043 kcal/mol; in data set [2] (x2 = 0.602) it was 0.072 ± 0.00359 kcal/mol. The excess molar enthalpy was 0.0578 ± 0.00287 kcal/mol in data set [2] (x2 = 0.7), 0.0397 ± 0.00203 kcal/mol in data set [2] (x2 = 0.8) and 0.0182 ± 0.000956 kcal/mol in data set [2] (x2 = 0.902).
For `C=CCCCCCC` [oct-1-ene] + CCCCCCCCO, the excess molar enthalpy in data set [2] (x2 = 0.097) is 0.0699 ± 0.00359 kcal/mol; in data set [2] (x2 = 0.194), 0.0935 ± 0.00478 kcal/mol; in data set [2] (x2 = 0.292) it was 0.104 ± 0.00526 kcal/mol; in data set [2] (x2 = 0.391) it was 0.103 ± 0.00526 kcal/mol; in data set [2] (x2 = 0.49) it was 0.0942 ± 0.00478 kcal/mol; in data set [2] (x2 = 0.6), 0.0814 ± 0.00406 kcal/mol. For the same compound, the excess molar enthalpy in data set [2] (x2 = 0.699) worked out at 0.0631 ± 0.00311 kcal/mol; in data set [2] (x2 = 0.799) it was 0.0429 ± 0.0022 kcal/mol; in data set [2] (x2 = 0.899) it was 0.0188 ± 0.00098 kcal/mol.
For the compound `C=CCCCCCC` [oct-1-ene] + CCCCCCO, the excess molar enthalpy in data set [2] (x2 = 0.096) turned out to be 0.0801 ± 0.00406 kcal/mol; in data set [2] (x2 = 0.192) it was 0.105 ± 0.00526 kcal/mol; in data set [2] (x2 = 0.307), 0.12 ± 0.00598 kcal/mol; in data set [2] (x2 = 0.403) it was 0.118 ± 0.00598 kcal/mol; in data set [2] (x2 = 0.5), 0.106 ± 0.00526 kcal/mol; in data set [2] (x2 = 0.598), 0.0912 ± 0.00454 kcal/mol. Also, the excess molar enthalpy was determined as 0.0724 ± 0.00359 kcal/mol in data set [2] (x2 = 0.697), 0.0491 ± 0.00263 kcal/mol in data set [2] (x2 = 0.802) and 0.0233 ± 0.00122 kcal/mol in data set [2] (x2 = 0.9).
`C=CCCCCCC` [oct-1-ene] + CCCCO: the excess molar enthalpy in data set [2] (x2 = 0.095) worked out at 0.0949 ± 0.00478 kcal/mol; in data set [2] (x2 = 0.209), 0.14 ± 0.00717 kcal/mol; in data set [2] (x2 = 0.304), 0.154 ± 0.00789 kcal/mol; in data set [2] (x2 = 0.4), 0.149 ± 0.00765 kcal/mol; in data set [2] (x2 = 0.497), 0.132 ± 0.00669 kcal/mol; in data set [2] (x2 = 0.595), 0.109 ± 0.0055 kcal/mol. The excess molar enthalpy in data set [2] (x2 = 0.702) was determined as 0.0832 ± 0.0043 kcal/mol; in data set [2] (x2 = 0.8), 0.0565 ± 0.00287 kcal/mol; in data set [2] (x2 = 0.899) it was 0.0286 ± 0.00148 kcal/mol.
Take `C=CCCCCCC` [oct-1-ene] + CCCO: the excess molar enthalpy in data set [2] (x2 = 0.094) is 0.104 ± 0.00526 kcal/mol; in data set [2] (x2 = 0.189) it was 0.154 ± 0.00789 kcal/mol; in data set [2] (x2 = 0.302), 0.183 ± 0.00932 kcal/mol; in data set [2] (x2 = 0.398) it was 0.179 ± 0.00908 kcal/mol; in data set [2] (x2 = 0.495), 0.163 ± 0.00837 kcal/mol; in data set [2] (x2 = 0.593) it was 0.143 ± 0.00717 kcal/mol. Also, the excess molar enthalpy in data set [2] (x2 = 0.693) was 0.117 ± 0.00598 kcal/mol; in data set [2] (x2 = 0.799), 0.0814 ± 0.00406 kcal/mol; in data set [2] (x2 = 0.899) it was 0.0435 ± 0.00222 kcal/mol.
Turning to `CCCCCCCCO` [octan-1-ol], the mass density in data set [1] turned out to be 822.47 ± 0.83 kg/m3.
On the same count and under the same terms, next, `CCCO` [propan-1-ol]: 799.65 ± 0.72 kg/m3.

The record behind these values is the NIST ThermoML archive (doi:10.1016/j.fluid.2007.07.063).
